Two compounds from patent US11466028B2, “Fused 1,4-oxazepines as BET protein degraders” (THE REGENTS OF THE UNIVERSITY OF MICHIGAN, priority 2016, dated 2022) can be followed below.

For one test, the system named is MDA-MB-157. Nature of the test: WST-8 cell growth inhibition assay, MDA-MB-157. The class given is cell-based. The note with it: Homo sapiens, WST-8, Table 6. As for the experimental part:
(§1) Cpd. Nos. 7 and 18 were tested in various triple-negative breast cancer cell lines using the WST-8 cell growth assay.
In general terms: Tetrazolium assays rely on reduction of a dye to a coloured formazan, in cell work by metabolically active cells.

Test [1] relates to MDA-MB-231. Nature of the test: CellTiter-Glo cell growth inhibition, MDA-MB-231. The class given is cell-based. The note with it: Homo sapiens, MDA-MB-231, 96 h, 4 days, Table 4. The method, boiled down:
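Cells seeded at 2,000 cells/well with serially diluted compound and incubated 4 days at 37 °C, 5% CO2. Viability read by CellTiter-Glo luminescence after 10-20 min at room temperature; IC50 calculated from the dose-response.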
On the technique in general: Cellular ATP, detected with luciferase, serves as a proxy for viable cell number.

The test system of test [2] is MDA-MB-231. Nature of the test: WST-8 cell growth inhibition assay, MDA-MB-231. The class given is cell-based. Particulars: Homo sapiens, WST-8, Table 6. The procedure:
as §1

In another test the test system is MDA-MB-436. Nature of the test: WST-8 cell growth inhibition assay, MDA-MB-436. Format: cell-based. Particulars: Homo sapiens, WST-8, Table 6. The procedure:
as §1

A further test deals with HBL100. Nature of the test: WST-8 cell growth inhibition assay, HBL100. Particulars: Homo sapiens, HBL-100; WST-8, Table 6. Format: cell-based. The procedure:
as §1

The subject of another test is RS4;11. Nature of the test: CellTiter-Glo cell growth inhibition, RS4;11. Format: cell-based. Particulars: Homo sapiens, RS4-11, 96 h, 4 days, Table 4, read-out: RS-4, 11 IC50. The method, boiled down:
(§2)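 Leukemia cells seeded at 2,000 cells/well with serially diluted compounds, 4 days at 37 °C, 5% CO2. Viability by CellTiter-Glo luminescence after 10-20 min at RT. IC50 calculated from the curves.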

A further test relates to MDA-MB-453. Nature of the test: WST-8 cell growth inhibition assay, MDA-MB-453. Format: cell-based. The note with it: Homo sapiens, WST-8, Table 6. The procedure: as §1
A further test deals with MDA-MB-474. Nature of the test: WST-8 cell growth inhibition assay, MDA-MB-474. Format: cell-based. The note with it: WST-8, Table 6. As for the experimental part: as §1
Another test has as its system MDA-MB-468. Nature of the test: WST-8 cell growth inhibition assay, MDA-MB-468. The class given is cell-based. The note with it: Homo sapiens, WST-8, Table 6. As for the experimental part: as §1
For another test, the system named is RS4;11 xenograph tumors. Nature of the test: RS4;11 xenograft model. Format: in vivo, SCID mice. The note with it: for tumor regression in RS4;11 xenograph tumors: SCID mice. The procedure:
Cpd. Nos. 7 and 11 were dissolved in 10% PCP [10% PEG400 (Sigma), 3% Cremophor (Sigma), and 87% PBS (Gibco)]. The pH of the drug solutions were checked before use and adjusted with 0.5N NaOH to be between pH 6.5 and 8.0 for IV (intravenous) administration.
RS4;11 cells were maintained at 37° C., 95% air, 5% carbon dioxide in Improved MEM (Richter's Mod.) supplemented with 10% Fetal Bovine Serum, 100 units/ml of penicillin and 100 units/ml of streptomycin (GIBCO™, Invitrogen Corp.) and passaged twice weekly.
Tumor cells for xenografts were harvested with Trypsin (0.05%)-EDTA (0.53 mM) (GIBCO™, Invitrogen Corp.), growth medium added and cells placed on ice. Cells were washed once with 1×PBS (GIBCO™, Invitrogen Corp.) and re-suspended in PBS. After washing in PBS, cells were re-suspended in an ice cold mixture of 1:1 PBS and Matrigel (BD Biosciences, Invitrogen Corp.) for a final Matrigel protein concentration of 5 mg/ml. Cells at 5×10^6 cells in 0.1 ml were injected subcutaneously (s.c.) into the flank region of each mouse using a 25 gauge needle. All tumors were inoculated into SCID mice (strain:236) C.B-17 SCID, Charles River.
The size of tumors growing in the mice was measured in two dimensions using calipers. Tumor volume (mm^3)═(A×B^2)/2 where A and B are the tumor length and width (in mm), respectively. During treatment, tumor volume and body weight were measured three times a week. After the treatment was stopped, tumor volume and body weight was measured at least once a week.
Tumors were not allowed to exceed 10% of the animals total body weight. If an animal had two or more tumors the total weight of all tumors were not allowed to exceed 10% of the animal's total body weight. At the end of the experimental period or when tumor size approached 10% of the total body weight, the animal was euthanized.
Before treatment began, tumors were allowed to grow to 100-200 mm^3 in volume, at which point the blood vessel supplies to the tumor should have been well established. Mice with tumors within acceptable size range were randomized into treatment groups of seven mice. Cpd. Nos. 7 and 11 were given i.v. at 10 mg/kg at days 1,3, and 5 per week for two weeks. The Control group received vehicle alone. Cpd. Nos. 16, 18, 22 and 48 were given i.v. at 5 mg/kg at days 1, 3, and 5 per week for two weeks. The Control group received vehicle alone.
(§3) Representative Compounds of the Disclosure were tested in the RS4;11 and other xenograph models using similar techniques. […] No. 22 in the MDA-MB-231 TNBC model.

In the next test the test system is MOLM-13. Nature of the test: CellTiter-Glo cell growth inhibition, MOLM-13. The class given is cell-based. The note with it: Homo sapiens, MOLM-13, 96 h, 4 days, Table 4, read-out: MOLM-13 IC50. The method, boiled down:
as §2

The test system of the next test is MDA-MB-231 TNBC. Nature of the test: MDA-MB-231 TNBC model. The note with it: FIG. 12. The class given is in vivo. As for the experimental part:
as §3

The test system of a further test is MDA-MB-468 TNBC. Nature of the test: MDA-MB-468 TNBC model. Particulars: FIG. 11. Format: in vivo. The procedure:
as §3

The test system of a further test is MV4;11 xenograph. Nature of the test: MV4;11 xenograph model. Format: in vivo. The procedure: as §3
A further test has as its system WHIM24 breast cancer PDX. Nature of the test: WHIM24 breast cancer PDX model. The class given is in vivo. Particulars: FIG. 10. The procedure: as §3

Regarding `Cc1nnc2n1-c1sc(C#Cc3cnn(CCCCNc4cccc5c4C(=O)N(C4CCC(=O)NC4=O)C5=O)c3)c(Cc3ccccc3)c1CO[C@H]2C` (stereo partly drawn) [Cpd. No. 7, 4-((4-(4-(((S)-3-benzyl-6,9-dimethyl-4H,6H-thieno[2,3-e][1,2,4]triazolo[3,4-c][1,4]oxazepin-2-yl)ethynyl)-1H-pyrazol-1-yl)butyl)amino)-2-(2,6-dioxopiperidin-3-yl)isoindoline-1,3-dione], the IC50 (in general, the midpoint of a concentration-inhibition curve) in the test with MDA-MB-157 worked out at 0.29 ± 0.02 nM; in the test on MDA-MB-231 [1] it was 0.8 nM; in the test on MDA-MB-231 [2] it was 1.2 ± 0.13 nM; in the test on MDA-MB-436, 2.24 ± 0.3 nM; with HBL100, 1.7 ± 0.15 nM; in the test on RS4;11, 0.03 nM. Moreover, the IC50 with MDA-MB-453 came to 1.02 ± 0.03 nM; with MDA-MB-474, 1.09 ± 0.06 nM; in the test on MDA-MB-468 it was 2.46 ± 0.07 nM; with MOLM-13, 0.7 nM. In addition, the “tumor regression in RS4;11 xenograph tumors” value in the test on RS4;11 xenograph tumors (i.v. 10 mg/kg at days 1, 3, 5 per week for two weeks, FIG. 3) is reported as “induce tumor regression”.
With `Cc1nnc2n1-c1sc(C#Cc3cnn(CCCC#Cc4cccc5c4CN(C4CCC(=O)NC4=O)C5=O)c3)c(Cc3ccccc3)c1COC2` (stereo not shown) [Cpd. No. 22, 3-(4-(5-(4-((3-benzyl-9-methyl-4H,6H-thieno[2,3-e][1,2,4]triazolo[3,4-c][1,4]oxazepin-2-yl)ethynyl)-1H-pyrazol-1-yl)pent-1-yn-1-yl)-1-oxoisoindolin-2-yl)piperidine-2,6-dione], the “tumor regression in the MDA-MB-231 TNBC model” value with MDA-MB-231 TNBC was “induces tumor regression”. In addition, the IC50 in the test with MDA-MB-231 [1] is < 0.015 nM; in the test on RS4;11, 0.11 nM; with MOLM-13, 0.85 nM. Also, the “tumor regression in the MDA-MB-468 TNBC model” value with MDA-MB-468 TNBC is reported as “induces tumor regression”. Further, in the test on RS4;11 xenograph tumors (i.v. 5 mg/kg at days 1, 3, 5 per week for two weeks, FIG. 4), the “tumor regression in RS4;11 xenograph tumors” value is “induce tumor regression”. Besides, the “tumor regression in the RS4;11 xenograph model” value in the test with RS4;11 xenograph tumors (every other day dosing schedule, FIG. 6) was “induces tumor regression”; in the test on RS4;11 xenograph tumors (single dose or weekly dosing schedule, FIG. 7) it was “induces tumor regression”. Moreover, the “tumor regression in the MV4;11 xenograph model” value in the test on MV4;11 xenograph (FIG. 8) is reported as “induces tumor regression”; with MV4;11 xenograph (FIG. 9), “induce tumor regression”. Also, the “tumor regression in the WHIM24 breast cancer PDX model” value with WHIM24 breast cancer PDX is on record as “induces tumor regression”.
